Legend:
[1] = Particle size distribution by laser diffraction (Malvern Mastersizer 2000); format: physicochemical; conditions: no unit in Table 4; d values in micrometers, volume distribution
Procedure: The particle size distribution of 8-(1,3-Dimethyl-1H-pyrazol-4-yl)-1-(Sa)-(3-fluoro-5-methoxy-pyridin-4-yl)-7-methoxy-3-methyl-1,3-dihydro-imidazo[4,5-c]quinolin-2-one is measured by laser diffraction on a Malvern Mastersizer 2000 (wet method using Hydro 2000S; sample amount of 100 mg dispersed in 5 ml silicone oil; stirrer speed 2000 rpm, no sonication, measuring time of 7.5 s; obscuration of 10-15%). The d values refer to the particle size distribution in micrometers […] whereby the dl 0 value refers to the particle diameter in micrometers at which 10 percent of the volume distribution of the particles are smaller than such value, the d50 value refers to the particle diameter in micrometers at which 50 percent of the volume distribution of the particles are smaller than such value and the d90 value refers to the particle diameter in micrometers at which 90 percent of the volume distribution of the particles are smaller than such value.

ATM pCHK2 pathway = assay: Inhibition of the ATM pCHK2 pathway; format: cell-based; conditions: compared to the (Ra) atropisomer and the unseparated compound
Microsomal clearance = format: in vitro ADME; conditions: compared to the (Ra) atropisomer and the unseparated compound
[2] = target: phosphodiesterase (PDE) 2A1 (Homo sapiens, UniProt O00408); assay: Inhibition of PDE2A1; format: biochemical; conditions: compared to the (Ra) atropisomer and the unseparated compound
Sequence of phosphodiesterase (PDE) 2A1 (O00408 1-920 isoform O00408-2): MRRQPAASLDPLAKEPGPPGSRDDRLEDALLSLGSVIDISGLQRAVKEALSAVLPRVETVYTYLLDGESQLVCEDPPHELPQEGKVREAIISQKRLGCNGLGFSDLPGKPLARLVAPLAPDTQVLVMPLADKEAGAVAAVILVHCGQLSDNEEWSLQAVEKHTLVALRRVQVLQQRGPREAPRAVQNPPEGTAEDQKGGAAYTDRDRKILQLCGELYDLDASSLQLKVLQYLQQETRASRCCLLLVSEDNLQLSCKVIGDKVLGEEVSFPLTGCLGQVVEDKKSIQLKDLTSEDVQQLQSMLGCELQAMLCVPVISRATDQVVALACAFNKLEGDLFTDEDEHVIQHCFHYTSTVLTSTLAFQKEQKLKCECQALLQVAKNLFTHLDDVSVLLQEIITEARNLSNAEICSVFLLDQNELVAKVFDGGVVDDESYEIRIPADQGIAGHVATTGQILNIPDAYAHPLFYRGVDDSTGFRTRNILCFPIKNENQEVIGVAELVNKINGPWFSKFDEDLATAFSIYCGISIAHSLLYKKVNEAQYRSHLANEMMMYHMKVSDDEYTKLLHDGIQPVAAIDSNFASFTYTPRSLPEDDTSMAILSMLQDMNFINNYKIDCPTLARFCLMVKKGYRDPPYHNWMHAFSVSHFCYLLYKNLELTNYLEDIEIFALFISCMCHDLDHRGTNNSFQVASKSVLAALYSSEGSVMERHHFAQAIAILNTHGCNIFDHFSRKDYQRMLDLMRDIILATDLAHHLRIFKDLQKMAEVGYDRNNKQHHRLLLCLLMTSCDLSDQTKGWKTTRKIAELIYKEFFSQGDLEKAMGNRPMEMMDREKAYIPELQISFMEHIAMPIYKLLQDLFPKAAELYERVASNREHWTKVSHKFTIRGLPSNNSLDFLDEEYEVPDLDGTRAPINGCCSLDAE

PDE4A1A = PDE4A1A (Homo sapiens, UniProt P27815); assay: Inhibition of PDE4A1A; format: biochemical; conditions: compared to the (Ra) atropisomer and the unseparated compound
Sequence of PDE4A1A (P27815 1-647 isoform P27815-4): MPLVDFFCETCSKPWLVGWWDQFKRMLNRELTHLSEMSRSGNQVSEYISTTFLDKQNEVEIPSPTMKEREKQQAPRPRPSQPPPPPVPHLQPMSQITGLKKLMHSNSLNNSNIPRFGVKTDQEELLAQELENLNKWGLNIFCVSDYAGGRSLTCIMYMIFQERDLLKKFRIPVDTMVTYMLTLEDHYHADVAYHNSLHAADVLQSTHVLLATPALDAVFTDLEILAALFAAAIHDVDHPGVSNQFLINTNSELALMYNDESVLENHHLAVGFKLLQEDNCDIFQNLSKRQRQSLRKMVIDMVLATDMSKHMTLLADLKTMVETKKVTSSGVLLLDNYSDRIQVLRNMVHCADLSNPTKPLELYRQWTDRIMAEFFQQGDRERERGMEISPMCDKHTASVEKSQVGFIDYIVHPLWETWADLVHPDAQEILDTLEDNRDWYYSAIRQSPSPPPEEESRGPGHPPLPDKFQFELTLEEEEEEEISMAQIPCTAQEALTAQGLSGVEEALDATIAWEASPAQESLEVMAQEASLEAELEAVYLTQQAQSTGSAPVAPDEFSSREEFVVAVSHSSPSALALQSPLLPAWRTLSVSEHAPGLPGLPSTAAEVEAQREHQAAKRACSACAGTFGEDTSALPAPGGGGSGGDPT

PDE4D2 = PDE4D2 (Homo sapiens, UniProt Q08499); assay: Inhibition of PDE4D2; format: biochemical; conditions: compared to the (Ra) atropisomer and the unseparated compound
Sequence of PDE4D2 (Q08499 303-809 limits assumed): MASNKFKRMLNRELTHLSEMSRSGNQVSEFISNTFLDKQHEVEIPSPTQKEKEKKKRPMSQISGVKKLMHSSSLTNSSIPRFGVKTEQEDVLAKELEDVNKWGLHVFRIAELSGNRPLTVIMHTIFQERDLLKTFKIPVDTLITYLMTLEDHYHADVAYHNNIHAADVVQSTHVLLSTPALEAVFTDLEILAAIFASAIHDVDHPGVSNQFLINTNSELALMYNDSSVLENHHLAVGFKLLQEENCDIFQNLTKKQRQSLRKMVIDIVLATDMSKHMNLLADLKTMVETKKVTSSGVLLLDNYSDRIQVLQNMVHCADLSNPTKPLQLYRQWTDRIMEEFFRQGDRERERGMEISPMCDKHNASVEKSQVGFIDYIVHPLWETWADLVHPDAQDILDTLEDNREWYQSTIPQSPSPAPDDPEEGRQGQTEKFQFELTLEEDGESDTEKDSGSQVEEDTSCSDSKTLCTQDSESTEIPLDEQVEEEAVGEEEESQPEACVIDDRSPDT

[3] = Selectivity compared to the other atropisomer and the mixture; conditions: compared to the (Ra) atropisomer and the unseparated compound
[4] = Thermodynamic stability of anhydrous polymorphic forms; format: physicochemical; conditions: among anhydrous Forms A1, A2, A3

SMILES	Dv10 [1]	Dv50 [1]	Dv90 [1]	Inhibition of the ATM pCHK2 pathway (ATM pCHK2 pathway)	Microsomal clearance values (Microsomal clearance)	Inhibition of phosphodiesterase (PDE) 2A1 [2]	Inhibition of PDE4A1A (PDE4A1A)	Inhibition of PDE4D2 (PDE4D2)	Selectivity [3]	Thermodynamic stability of the solid form [4]
COc1cc2ncc3c(c2cc1-c1cn(C)nc1C)n(-c1c(F)cncc1OC)c(=O)n3C (atropisomer, axis not shown; (Sa)) [Compound 1 Anhydrous Form A2 OPT, 8-(1,3-Dimethyl-1H-pyrazol-4-yl)-1-(Sa)-(3-fluoro-5-methoxy-pyridin-4-yl)-7-methoxy-3-methyl-1,3-dihydro-imidazo[4,5-c]quinolin-2-one]	19 µm	64 µm	202 µm	–	–	–	–	–	–	–
COc1cc2ncc3c(c2cc1-c1cn(C)nc1C)n(-c1c(F)cncc1OC)c(=O)n3C (atropisomer, axis not shown; (Sa)) [Compound 1, 8-(1,3-Dimethyl-1H-pyrazol-4-yl)-1-(Sa)-(3-fluoro-5-methoxy-pyridin-4-yl)-7-methoxy-3-methyl-1,3-dihydro-imidazo[4,5-c]quinolin-2-one]	–	–	–	at lower concentrations	best microsomal clearance values	lowest inhibition	lowest inhibition	lowest inhibition	better selectivity	–
COc1cc2ncc3c(c2cc1-c1cn(C)nc1C)n(-c1c(F)cncc1OC)c(=O)n3C (atropisomer, axis not shown; (Sa)) [Compound 1 Anhydrous Form A2, 8-(1,3-Dimethyl-1H-pyrazol-4-yl)-1-(Sa)-(3-fluoro-5-methoxy-pyridin-4-yl)-7-methoxy-3-methyl-1,3-dihydro-imidazo[4,5-c]quinolin-2-one]	9 µm	63 µm	599 µm	–	–	–	–	–	–	thermodynamically most stable anhydrous form

— US20230330027A1, “PHARMACEUTICAL PREPARATION” (MERCK PATENT GMBH, priority 2020, published 2023)
